In publication PMC9861162 (Pharmaceuticals, 2022):

Key:
CYP2A6 = target: T1, CYP2A6 (Homo sapiens, UniProt P11509); assay: in vitro CYP450 metabolism inhibition assay in human liver microsomes, CYP2A6 (coumarin); conditions: microsomes
T1 sequence (P11509 1-494): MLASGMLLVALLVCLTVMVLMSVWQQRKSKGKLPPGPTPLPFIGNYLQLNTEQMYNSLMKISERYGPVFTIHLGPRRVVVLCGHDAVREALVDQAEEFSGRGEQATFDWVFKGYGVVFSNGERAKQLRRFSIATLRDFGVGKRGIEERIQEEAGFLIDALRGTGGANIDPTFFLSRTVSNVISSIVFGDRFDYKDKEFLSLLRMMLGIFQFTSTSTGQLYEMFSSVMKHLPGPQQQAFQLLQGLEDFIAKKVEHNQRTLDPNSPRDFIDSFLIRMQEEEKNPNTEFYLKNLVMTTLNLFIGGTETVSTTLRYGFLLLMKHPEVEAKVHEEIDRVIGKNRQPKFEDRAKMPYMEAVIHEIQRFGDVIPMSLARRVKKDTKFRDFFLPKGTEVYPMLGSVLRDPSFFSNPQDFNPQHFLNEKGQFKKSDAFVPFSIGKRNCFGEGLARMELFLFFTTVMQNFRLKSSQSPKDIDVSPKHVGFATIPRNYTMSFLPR
Procedure: The incubation conditions employed for each CYP450 isoform were performed, as previously described.
Buffer solution (0.1 mol/L aqueous phosphate buffer, pH 7.4, 69 µL), NADPH-regenerating solutions (10 µL solution A: 26 mmol/L NADP+, 66 mmol/L glucose-6-phosphate, and 66 mmol/L MgCl2; 2 µL solution B: 40 U/mL glucose-6-phosphate dehydrogenase in 5 mmol/L sodium citrate), and deionized water (69 µL) were added, in a total volume of 150 μL. The tubes were vortex-mixed and preincubated with continuous gentle shaking for 5 min at 37 °C in a shaking water bath. Reactions were initiated by the addition of 50 µL of HLM solution in the tubes which were gently mixed by hand and incubated with continuous gentle shaking at 37 °C. Aliquots of 200 µL ice-cold solvent (Table 1) containing IS (1 µg/mL) were added. […] The supernatants were transferred to glass autosampler vials and submitted to LC-MS/MS analysis (5 µL injection volume) to monitor the substrate metabolite formation.

[1] = design: method as in Antunes et al. [14]; conditions: dog plasma; ref Antunes et al. [14]; cited from earlier work

FC(F)(F)c1ccc(COC(Cn2ccnc2)c2ccc(Cl)cc2Cl)cc1 (centres unmarked) [dapaconazole, Dapaconazole]
IC50 (CYP2A6): 20.7 µM | Unbound fraction [1]: 0.037
